Data set [1] has as its target T1, human recombinant V2 vasopressin receptors (Homo sapiens, UniProt P30518).
T1 construct: expressed in transfected cells; host or cells: CHO
Kind of data set: in vitro binding test, displacement of [H3]-AVP from V2 vasopressin receptors. The following applies: CHO membranes, 3.5 nM [H3]-AVP, 45 minutes at 25° C. The protocol:
The affinity of the compounds of the invention for the V2 vasopressin receptors was measured in in vitro binding tests, as described in J. Pharmacol. Exp. Ther., (2002), 300: pp. 1122-1130.
Plasma membranes (about 20 μg/ml) obtained from CHO tissue or cell line expressing human recombinant V2 vasopressin receptors, are incubated for 45 minutes at 25° C. in 200 μL of TRIS-HCl buffer (50 mM; pH 8.2) containing 2 mM of MgCl2, 1 mM of EDTA, 0.1% of BSA, 1/500 protease inhibitor cocktail (Sigma #P2714) and 3.5 nM of [H3]-AVP. The reaction is stopped by filtration and washing on GF/B filters. Nonspecific binding is determined in the presence of 1 μM of AVP. The compounds of the invention, dissolved beforehand to a concentration of 10^−2 M in DMSO, are tested in a dilution series.
For each concentration the results are expressed as percentage inhibition of specific binding. An IC50 (concentration of product inhibiting 50% of specific binding) is determined for each of the products using the in-house software Biost@t-SPEED v1.3 which employs the 4-parameter logistic model of Ratkovsky and Reedy (1986). Adjustment is obtained by nonlinear regression using Marquardt's algorithm of the SAS v8.2 software running under UNIX.

A further data set has as its target V1a receptors (Homo sapiens, UniProt P37288). Kind of data set: affinity for V1a receptors (method of Thibonnier et al.). The following applies: for IC50 V1a/IC50 V2: selectivity ratio versus V2. It is filed as binding. Here is the method: (§1) The affinity of the compounds of the invention for the Via and V1b vasopressin receptors and the affinity of the compounds of the invention for the oxytocin (OXT) receptors were also tested.
(§2) The affinity of the compounds according to the invention for human Via receptors was determined according to the method described by M. Thibonnier et al. in J. Biol. Chem. 1994, 269, 3304-3310. The affinity of the compounds according to the invention for the V1b receptors was determined according to the method described by T. Sugimoto et al. in J. Biol. Chem. 1994, 269, 27088-27092.

The next data set addresses T2, V1b receptors (Homo sapiens, UniProt P47901).
T2 sequence (P47901 1-424): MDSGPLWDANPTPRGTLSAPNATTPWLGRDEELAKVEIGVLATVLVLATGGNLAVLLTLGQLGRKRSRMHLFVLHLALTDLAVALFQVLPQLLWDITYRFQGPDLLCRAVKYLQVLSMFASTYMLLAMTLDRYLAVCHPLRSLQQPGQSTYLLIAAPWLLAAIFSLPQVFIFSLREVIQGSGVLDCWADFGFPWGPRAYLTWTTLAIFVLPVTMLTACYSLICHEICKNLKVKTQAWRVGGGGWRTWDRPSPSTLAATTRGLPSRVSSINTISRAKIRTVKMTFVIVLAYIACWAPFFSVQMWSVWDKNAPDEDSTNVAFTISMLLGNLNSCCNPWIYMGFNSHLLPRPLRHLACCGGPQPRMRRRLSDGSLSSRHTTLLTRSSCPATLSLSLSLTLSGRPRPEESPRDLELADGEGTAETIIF
Kind of data set: affinity for V1b receptors (method of Sugimoto et al.). In kind it is binding. The following applies: for IC50 V1b/IC50 V2: selectivity ratio versus V2. Here is the method: as §1, §2

The next data set concerns the target T3, human oxytocin receptors (Homo sapiens, UniProt P30559).
T3 sequence (P30559 1-389): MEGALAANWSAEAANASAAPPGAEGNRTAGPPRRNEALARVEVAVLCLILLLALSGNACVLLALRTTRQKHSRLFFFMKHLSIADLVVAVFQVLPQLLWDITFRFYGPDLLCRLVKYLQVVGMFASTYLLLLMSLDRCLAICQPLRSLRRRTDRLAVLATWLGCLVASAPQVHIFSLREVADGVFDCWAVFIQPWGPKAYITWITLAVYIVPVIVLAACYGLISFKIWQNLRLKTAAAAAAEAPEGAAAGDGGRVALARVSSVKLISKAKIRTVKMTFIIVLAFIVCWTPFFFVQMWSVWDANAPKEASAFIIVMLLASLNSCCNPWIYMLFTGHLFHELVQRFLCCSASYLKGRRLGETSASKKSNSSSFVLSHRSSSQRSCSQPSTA
Description: in vitro binding test, displacement of a radioiodated oxytocin analogue from oxytocin receptors. The following applies: for IC50: membrane preparation of human oxytocin receptors; for IC50 OXT/IC50 V2: selectivity ratio versus V2. The protocol:
as §1
The affinity of the compounds according to the invention for the OXT receptors was determined in an in vitro binding test using the method described by J. Elands et al. in Eur. J. Pharmacol. 1987, 147, 197-207. This method comprises in vitro investigation of the displacement of a radioiodated analogue of oxytocin from the oxytocin receptors in a membrane preparation of human oxytocin receptors.

T1 sequence (P30518 whole entry): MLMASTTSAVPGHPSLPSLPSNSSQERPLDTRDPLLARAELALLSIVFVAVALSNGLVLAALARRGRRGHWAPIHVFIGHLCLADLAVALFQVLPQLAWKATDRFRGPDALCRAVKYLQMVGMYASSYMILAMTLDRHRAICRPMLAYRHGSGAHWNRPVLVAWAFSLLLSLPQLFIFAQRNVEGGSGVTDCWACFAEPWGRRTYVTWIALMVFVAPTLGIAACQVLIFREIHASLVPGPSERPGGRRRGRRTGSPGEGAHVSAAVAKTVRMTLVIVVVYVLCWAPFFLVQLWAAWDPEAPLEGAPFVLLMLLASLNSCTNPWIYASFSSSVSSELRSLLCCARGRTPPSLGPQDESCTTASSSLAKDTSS
V1a receptors, sequence (P37288 whole entry): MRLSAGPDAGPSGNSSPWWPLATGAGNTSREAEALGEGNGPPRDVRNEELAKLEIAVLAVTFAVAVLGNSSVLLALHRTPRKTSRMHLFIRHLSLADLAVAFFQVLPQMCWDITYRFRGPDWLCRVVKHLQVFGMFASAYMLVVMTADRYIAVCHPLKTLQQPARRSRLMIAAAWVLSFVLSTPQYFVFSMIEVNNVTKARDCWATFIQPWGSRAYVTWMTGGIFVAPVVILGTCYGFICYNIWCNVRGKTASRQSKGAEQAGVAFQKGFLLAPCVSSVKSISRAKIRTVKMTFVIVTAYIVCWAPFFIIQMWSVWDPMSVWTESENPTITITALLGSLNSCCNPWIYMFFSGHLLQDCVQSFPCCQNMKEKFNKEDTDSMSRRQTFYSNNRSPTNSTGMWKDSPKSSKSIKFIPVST

As a reminder, the IC50 is the midpoint of a concentration-inhibition curve. What is called melting point is the temperature, or range, at which the solid turns liquid. As to `CCOc1ccc2c(c1)C(C)(c1ccccc1Cl)C(=O)N2S(=O)(=O)c1ccc(C(=O)NC(C)(C)C)cc1` (single isomer, unassigned) [Example 12, N-tert-butyl-4-[3-(2-chlorophenyl)-5-ethoxy-3-methyl-2-oxo-2,3-dihydroindole-1-sulphonyl]benzamide], the melting point worked out at 153 °C. For the same molecule, the IC50 in data set [1] was found to be 1.9 nM. On V1a receptors, the IC50 amounted to 450 nM and the “IC50 V1a/IC50 V2” value is more than 100. Further, on V1b receptors, the IC50 is more than 1000 nM and the “IC50 V1b/IC50 V2” value is reported as more than 100. On human oxytocin receptors, the IC50 turned out to be 140 nM and the “IC50 OXT/IC50 V2” value is 74.

The molecule `CCOc1ccc2c(c1)C(C)(c1ccccc1)C(=O)N2S(=O)(=O)c1ccc(C(=O)NC(C)(C)C)cc1OC` (single isomer, unassigned) [Example 99, N-tert-butyl-3-methoxy-4-[3-methyl-3-phenyl-5-ethoxy-2-oxo-2,3-dihydroindole-1-sulphonyl]benzamide] showed a melting point of 148 °C. Also, the IC50 in data set [1] was determined as 1 nM. Further, on V1a receptors, half-maximal inhibition (IC50) required 260 nM and the “IC50 V1a/IC50 V2” value is given as more than 100. Besides, on V1b receptors, the half-inhibitory concentration (IC50) was more than 1000 nM and the “IC50 V1b/IC50 V2” value is listed as more than 100. Besides, on human oxytocin receptors, the IC50 was found to be 700 nM and the “IC50 OXT/IC50 V2” value is listed as more than 100.

`CCNC(=O)c1ccc(Cl)c(C2(C)C(=O)N(S(=O)(=O)c3ccc(C(=O)NC(C)(C)C)cc3OC)c3ccc(OCC)cc32)c1` (centres unmarked) [Example 21, 4-chloro-3-[1-(4-tert-butylcarbamoyl-2-methoxybenzenesulphonyl)-5-ethoxy-3-methyl-2-oxo-2,3-dihydro-1H-indol-3-yl]-N-ethylbenzamide] displayed a melting point of 176 °C. Besides, the IC50 in data set [1] was determined as 3 nM. For the same molecule, on V1a receptors, the IC50 was 340 nM and the “IC50 V1a/IC50 V2” value is more than 100. Besides, on V1b receptors, the concentration for half-maximal inhibition (IC50) is more than 1000 nM and the “IC50 V1b/IC50 V2” value is given as more than 100. In addition, at human oxytocin receptors, the half-inhibitory concentration (IC50) is more than 1000 nM and the “IC50 OXT/IC50 V2” value was more than 100.

Molecule `CCOc1ccc2c(c1)C(C)(c1cc(C(=O)NCCN3CCOCC3)ccc1Cl)C(=O)N2S(=O)(=O)c1ccc(C(=O)NC(C)(C)C)cc1OC` (centres unmarked) [Example 36, 4-chloro-3-[1-(4-tert-butylcarbamoyl-2-methoxybenzenesulphonyl)-5-ethoxy-3-methyl-2-oxo-2,3-dihydro-1H-indol-3-yl]-N-(2-morpholin-4-ylethyl)benzamide] came in with a melting point of 124 °C. Moreover, in data set [1], the IC50 amounted to 5.2 nM. Moreover, at V1a receptors, the IC50 was more than 1000 nM and the “IC50 V1a/IC50 V2” value is given as more than 100. On V1b receptors, the IC50 is more than 1000 nM and the “IC50 V1b/IC50 V2” value is listed as more than 100. Further, at human oxytocin receptors, the IC50 stood at 350 nM and the “IC50 OXT/IC50 V2” value was 67.
